From patent US6245817A, “NPY5 receptor antagonists and methods for using same” (Bayer Corporation, priority 1999, dated 2001) come the findings set out here.

The target in experiment [1] is T1, Human NPY5 Receptor (Homo sapiens, UniProt Q15761).
T1 sequence (Q15761 1-445): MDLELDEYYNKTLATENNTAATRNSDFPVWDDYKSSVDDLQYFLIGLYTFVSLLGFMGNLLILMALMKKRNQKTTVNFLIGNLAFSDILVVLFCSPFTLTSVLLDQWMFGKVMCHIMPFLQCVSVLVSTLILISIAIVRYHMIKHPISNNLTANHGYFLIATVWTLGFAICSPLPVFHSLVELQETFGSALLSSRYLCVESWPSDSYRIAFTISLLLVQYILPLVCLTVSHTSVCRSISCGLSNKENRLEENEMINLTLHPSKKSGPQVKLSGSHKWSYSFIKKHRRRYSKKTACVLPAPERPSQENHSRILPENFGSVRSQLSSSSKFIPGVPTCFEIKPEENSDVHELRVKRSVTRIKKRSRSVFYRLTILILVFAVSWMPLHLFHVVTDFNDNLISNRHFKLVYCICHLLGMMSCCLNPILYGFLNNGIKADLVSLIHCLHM
Description: Human NPY5 Receptor Binding Assay. The following applies: [125I]PYY; read-out: hNPY5 IC50.
Description: Human and Rat NPY5 Receptor Binding Assays
Binding assays are performed on GF/C Millipore 96-well plates pretreated with 0.02% polyethylenimine. The binding buffer is 25 mM Tris, 120 mM NaCl, 5 mM KCl, 1.2 mM KH2 PO4, 2.5 mM CaCl2, 1.2 mM MgSO4, 0.1% BSA and 0.5 mg/ml bacitracin, pH 7.4. Samples consist of membrane protein, 75-100 pM [125I]PYY (porcine, NEN-DuPont) and drug dilution. Nonspecific binding is defined by 1 μM PYY. After a 2 hour incubation at room temperature with constant mixing, the samples are aspirated on a vacuum manifold, and rinsed with ice-cold binding buffer. The amount of radioactivity in each well is quantitated with either gamma counting or liquid scintillation. IC50 values, which correspond to 50% inhibition of specific binding, are determined with non-linear regression analysis.

Experiment [2] has as its target T2, Human NPY2 receptor (Homo sapiens, UniProt P49146).
T2 sequence (P49146 1-381): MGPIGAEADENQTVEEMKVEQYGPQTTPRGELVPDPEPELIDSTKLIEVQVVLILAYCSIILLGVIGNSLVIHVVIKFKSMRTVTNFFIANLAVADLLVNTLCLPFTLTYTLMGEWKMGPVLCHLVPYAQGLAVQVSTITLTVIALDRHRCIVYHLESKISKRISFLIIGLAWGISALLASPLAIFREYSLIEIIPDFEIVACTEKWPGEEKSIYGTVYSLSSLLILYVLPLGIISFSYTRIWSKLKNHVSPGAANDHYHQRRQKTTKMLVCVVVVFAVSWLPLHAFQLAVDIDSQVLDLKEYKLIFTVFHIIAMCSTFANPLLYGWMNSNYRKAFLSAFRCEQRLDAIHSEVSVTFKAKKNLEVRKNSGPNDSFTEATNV
Description: Human NPY2 Receptor Binding Assay. The conditions noted are these: [125I]PYY; read-out: hPPY2 IC50.
Description: Binding assays were performed on GF/C Millipore 96-well plates pretreated with 0.02% polyethylenimine. The binding buffer for rat Y2 binding is Krebs-Ringer bicarbonate (pH 7.4) containing 0.01% BSA and 0.005% bacitracin. Samples consist of membrane protein, 25 pM [125I]PYY and drug dilution. Nonspecific binding is defined by 1 μpM NPY.
After a 2 hour incubation at room temperature with constant mixing, the samples are aspirated on a vacuum manifold, and rinsed with ice-cold binding buffer. The amount of radioactivity in each well is quantitated with either gamma counting or liquid scintillation.

Experiment [3] deals with T3, Rat NPY5 Receptor (Rattus norvegicus, UniProt Q63634).
T3 sequence (Q63634 1-445): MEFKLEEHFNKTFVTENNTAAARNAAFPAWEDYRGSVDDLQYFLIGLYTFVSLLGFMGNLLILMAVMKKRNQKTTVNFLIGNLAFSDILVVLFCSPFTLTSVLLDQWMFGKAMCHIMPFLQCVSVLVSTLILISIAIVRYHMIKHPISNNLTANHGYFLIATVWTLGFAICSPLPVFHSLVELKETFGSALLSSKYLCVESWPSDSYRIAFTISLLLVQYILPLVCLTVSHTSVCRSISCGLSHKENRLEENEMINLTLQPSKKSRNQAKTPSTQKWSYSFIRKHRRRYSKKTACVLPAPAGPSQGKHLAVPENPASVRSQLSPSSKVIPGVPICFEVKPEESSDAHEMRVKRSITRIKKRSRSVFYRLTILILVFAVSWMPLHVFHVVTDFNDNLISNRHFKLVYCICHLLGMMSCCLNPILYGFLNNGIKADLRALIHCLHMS
The experiment is described as follows: Rat NPY5 Receptor Binding Assay. The conditions noted are these: [125I]PYY; read-out: rNPY5 IC50.

The IC50 is the concentration that inhibits the measured activity by half. As for `O=C(CSc1ccncc1)Nc1ccc(C2CCCCC2)cc1` [Compound 50, N-(-clohexyl-phenyl)-2-(pyridin-4-ylsulfanyl)-acetamide], the values for the IC50 in experiment [1] and in experiment [2] were 53 nM and greater than 5000 nM, respectively.
As to `O=C(CSc1ncnc2[nH]ncc12)Nc1ccc(C2CCCCC2)cc1` [Compound 35, N-(4-Cyclohexyl-phenyl)-2-(1H-pyrazolo[3,4-d]pyrimidin-4-ylsulfanyl)-acetamide], the IC50 was 3600 nM in experiment [1] and greater than 5000 nM in experiment [2].
For `O=C(CSc1nc2ccccc2c(=O)[nH]1)Nc1ccc(C2CCCCC2)cc1` [Compound 25, N-(4-Cyclohexyl-phenyl)-2-(4-oxo-3,-dihydro-quinazolin-2-ylsulfanyl)-acetamide], in that order: greater than 10000 nM and greater than 5000 nM.
For `O=C(CSc1ncnc2c1ncn2[C@@H]1O[C@H](CO)[C@H](O)[C@H]1O)Nc1ccc(C2CCCCC2)cc1` [Compound 23, N-(4-Cyclohexyl-phenyl)-2-[9-((2R,3R,4R,5R)-3,4-dihydroxy-5-hydroxymethyl-tetrahydro-furan-2-yl)-9H-purin-6-ylsulfanyl]-acetamide] the same measures were greater than 10000 nM and greater than 5000 nM.
For `O=C(CSc1nc2ccccc2o1)Nc1ccc(C2CCCCC2)cc1` [Compound 38, 2-(Benzooxazol-2-ylsulfanyl)-N-(-Cyclohexyl-phenyl)-acetamide], in that order: greater than 10000 nM and greater than 5000 nM.
Regarding `Nc1nc(SCC(=O)Nc2ccc(C3CCCCC3)cc2)c2[nH]cnc2n1` [Compound 58, 2-(2-Amino-7H-purin-ylsulfanyl)-N-(4-cyclohexyl-phenyl)-acetamide], the IC50 in experiment [1] is greater than 1000 nM; in experiment [2], greater than 5000 nM.
For `Nc1nc(SCC(=O)Nc2ccc(C(=O)c3ccccc3)cc2)nc(O)c1N=O` [Compound 70, 2-(4-Amino-hydroxy-nitroso-pyrimidin-2-ylsulfanyl)-N-(4-benzoyl-phenyl)-acetamide], in that order: greater than 10000 nM and greater than 5000 nM.
For `O=C(CSc1nc2cc([N+](=O)[O-])ccc2[nH]1)Nc1ccc(C(=O)c2ccccc2)cc1` [Compound 18, N-(4-Benzoyl-phenyl)-2-(5-nitro-1H-benzolmidazol-2-ylsulfanyl)-acetamide] the same measures were 200 nM and greater than 5000 nM.
For `O=C(CSc1nc[nH]n1)Nc1ccc(C2CCCCC2)cc1` [Compound 56, N-(4-Cyclohexyl-phenyl)-2-(1H-[1,2,4]triazol-3-ylsultanyl)-acetamide] the same measures were 730 nM and greater than 5000 nM.
Turning to `Nc1nc(SCC(=O)Nc2ccc(C(=O)c3ccccc3)cc2)nc2[nH]ncc12` [Compound 69, 2-(4-Amino-1H-pyrazolo[3,4-d]pyrimidin-6-ylsulfanyl)-N-(4-benzoyl-phenyl)-acetamide], the values for the IC50 in experiment [1] and in experiment [2] were 6800 nM and greater than 5000 nM, respectively.
For `O=C(CSC1=NCCS1)Nc1ccc(C2CCCCC2)cc1` [Compound 31], in that order: 640 nM and greater than 5000 nM.
For `O=C(CSc1ncnc2nc[nH]c12)Nc1ccc(C(=O)c2ccccc2)cc1` [Compound 28, N-(4-Benzoyl-phenyl)-2-(7H-purin-ylsulfanyl)-acetamide], in that order: greater than 10000 nM and greater than 5000 nM.
For `Cc1cc(C)nc(SCC(=O)Nc2ccc(C(=O)c3ccccc3)cc2)n1` [Compound 72, N-(4-Benzoyl-yl)-2-(4,6-dimethyl-pyrimidin-2-ylsulfanyl)-acetamide] the same measures were 8400 nM and greater than 5000 nM.
As for `COc1ccc2[nH]c(SCC(=O)Nc3ccc(C4CCCCC4)cc3)nc2c1` [Compound 19, N-(4-Cyclohexyl-phenyl)-2-(5-methoxy-1H-benzolmidazol-2-ylsulfanyl)-acetamide], the IC50 in experiment [1] is 710 nM; in experiment [2], greater than 5000 nM.
For `O=C(CSc1ncccn1)Nc1ccc(C2CCCCC2)cc1` [Compound 39, N-(-Cyclohexyl-phenyl)-2-(pyrimidin-2-ylsulfanyl)-acetamide] the same measures were 490 nM and greater than 5000 nM.
For `O=C(CSc1nnnn1-c1ccccc1)Nc1ccc(C2CCCCC2)cc1` [Compound 52] the same measures were 730 nM and greater than 5000 nM.
With `O=C(CSc1nnnn1-c1ccc(O)cc1)Nc1ccc(C(=O)c2ccccc2)cc1` [Compound 87, N-(4-Benzoyl-phenyl)-2-[1-(4-hydroxy-phenyl)-1H-tetrazol-5-ylsulfanyl]-acetamide], the figures for the IC50 in experiment [1] and in experiment [3] were 100 nM and 120 nM, respectively.
For `O=C(CSC1CCCC1)Nc1ccc(C(=O)c2ccccc2)cc1` [Compound 109, N-(4-Benzoyl-phenyl)-2-cyclopentylsulfanyl-acetamide], in that order: 610 nM and 370 nM.
For `O=C(CSc1nc(-c2ccccc2)no1)Nc1ccc(C2CCCCC2)cc1` [Compound 90, N-(4-Cyclohexyl-phenyl)-2-(3-phenyl-[1,2,4]oxadiazol-ylsulfanyl)-acetamide] the same measures were 260 nM and 340 nM.
As to `O=C(CSCc1cccc(CS)c1)Nc1ccc(C2CCCCC2)cc1` [Compound 96, N-(4-Cyclohexyl-phenyl)-2-(3-mercaptomethyl-benzylsulfanyl)-acetamide], the IC50 was 850 nM in experiment [1] and 610 nM in experiment [3].
For `Nc1ccccc1SCC(=O)Nc1ccc(C2CCCCC2)cc1` [Compound 97, 2-(2-Amino-phenylsulfanyl)-N-(4-cyclohexyl-phenyl)-acetamide] the same measures were 110 nM and 90 nM.
On to `CC(Sc1nnnn1C)C(=O)Nc1ccc(C2CCCCC2)cc1` (stereo not drawn) [Compound 127, N-(4-Cyclohexyl-phenyl)-2-(1-methyl-1H-tetrazol-5-ylsulfanyl)-propionamide], for which the results for the IC50 in experiment [1] and in experiment [3] were 59 nM and 50 nM, respectively.
For `Nc1ccc(SCC(=O)Nc2ccc(C3CCCCC3)cc2)cc1` [Compound 99, 2-(4-Amino-phenylsulfanyl)-N-(4-cyclohexyl-phenyl)-acetamide], in that order: 690 nM and 510 nM.
For `O=C(CSc1nnc(NC2CCCCC2)s1)Nc1ccc(C2CCCCC2)cc1` [Compound 116], in that order: 1300 nM and 2000 nM.
For `O=C(CSc1nnc(-c2ccccc2)o1)Nc1ccc(C(=O)c2ccccc2)cc1` [Compound 89, N-(4-Benzoyl-phenyl)-2-(5-phenyl [1,3,4]oxadiazol-2-ylsulfanyl)-acetamide] the same measures were 590 nM and 720 nM.
For `COc1ccc(-c2nnc(SCC(=O)Nc3ccc(C(=O)c4ccccc4)cc3)n2-c2cccc(C(F)(F)F)c2)cc1` [Compound 120, N-(4-Benzoyl-phenyl)-2-(5-(4-methoxy-phenyl)-4-(3-trifluoromethyl-phenyl)-4H-[1,2,4]triazol-3-ylsulfanyl]-acetamide], the concentration for half-maximal inhibition (IC50) in experiment [1] stood at 1300 nM; in experiment [3], 530 nM.
For `O=C(CSc1nnc(NC2CCCCC2)s1)Nc1ccc(C(=O)c2ccccc2)cc1` [Compound 123, N-(4-Benzoyl-phenyl)-2-(5-cyclohexylamino [1,3,4]thiadiazol-2-ylsulfanyl)-acetamide] the same measures were 420 nM and 530 nM.
